# According to patent publication US6949542B2, “Dihydro-benzo[b][1,4]diazepin-2-one derivatives” (Hoffman-La Roche Inc., priority 2002, dated 2005):
row,melting point,Structure (SMILES)
1,199 °C,"Cc1cc2c(cc1C(F)(F)F)NC(=O)CC(c1cccc(-c3ccc(C(C)C)nc3)c1)=N2 [Example 180, 4-[3-(6-Isopropyl-pyridin-3-yl)-phenyl]-7-methyl-8-trifluoromethyl-1,3-dihydro-benzo[b][1,4]diazepin-2-one]"
2,216 °C,"CCc1cc(-c2cccc(C3=Nc4cc(Cl)c(Cl)cc4NC(=O)C3)c2)ccn1 [Example 157, 7,8-Dichloro-4-[3-(2-ethyl-pyridin-4-yl)-phenyl]-1,3-dihydro-benzo[b][1,4]diazepin-2-one]"
3,232 to 233 °C,"CNc1cc(-c2cccc(C3=Nc4cc(C)c(C(F)(F)F)cc4NC(=O)C3)c2)ncn1 [Example 330, 7-Methyl-4-[3-(6-methylamino-pyrimidin-4-yl)-phenyl]-8-trifluoromethyl-1,3-dihydro-benzo[b][1,4]diazepin-2-one]"
4,198 to 200 °C,"Cc1ccncc1-c1cccc(C2=Nc3cc(OCC(F)(F)F)c(C(F)(F)F)cc3NC(=O)C2)c1 [Example 232, 4-[3-(4-Methyl-pyridin-3-yl)-phenyl]-7-(2,2,2-trifluoro-ethoxy)-8-trifluoromethyl-1,3-dihydro-benzo[b][1,4]diazepin-2-one]"
5,194 °C,"CC(C)c1ccc(-c2cccc(C3=Nc4ccc(C(F)(F)F)cc4NC(=O)C3)c2)cn1 [Example 177, 4-[3-(6-Isopropyl-pyridin-3-yl)-phenyl]-8-trifluoromethyl-1,3-dihydro-benzo[b][1,4]diazepin-2-one]"
6,212 °C,"Cc1nccc(-c2cccc(C3=Nc4cc(Cl)c(C(F)(F)F)cc4NC(=O)C3)c2)c1C [Example 143, 7-Chloro-4-[3-(2,3-dimethyl-pyridin-4-yl)-phenyl]-8-trifluoromethyl-1,3-dihydro benzo[b][1,4]diazepin-2-one]"
7,223 to 227 °C,"Cc1cc2c(cc1Cl)NC(=O)CC(c1cccc(-c3ncccn3)c1)=N2 [Example 335, 8-Chloro-7-methyl-4-(3-pyrimidin-2-yl-phenyl)-1,3-dihydro-benzo[b][1,4]diazepin-2-one]"
8,220 to 225 °C,"COc1ccc(-c2cccc(C3=Nc4cc(OCC(F)(F)F)c(C(F)(F)F)cc4NC(=O)C3)c2)cn1 [Example 170, 4-[3-(6-Methoxy-pyridin-3-yl)-phenyl]-7-(2,2,2-trifluoro-ethoxy)-8-trifluoromethyl-1,3-dihydro-benzo[b][1,4]diazepin-2-one]"
9,238 °C,"Cc1cc2c(cc1C(F)(F)F)N=C(c1cccc(-c3cncnc3)c1)CC(=O)N2 [Example 106, 8-Methyl-4-(3-pyrimidin-5-yl-phenyl)-7-trifluoromethyl-1,3-dihydro-benzo[b][1,4]diazepin-2-one]"
10,191 °C,"CCc1cnc(C)cc1-c1cccc(C2=Nc3cc(Cl)c(Cl)cc3NC(=O)C2)c1 [Example 150, 7,8-Dichloro-4-[3-(5-ethyl-2-methyl-pyridin-4-yl)-phenyl]-1,3-dihydro-benzo[b][1,4]diazepin-2-one]"
11,195 °C,"CC(C)c1cc(-c2cccc(C3=Nc4cc(Cl)c(Cl)cc4NC(=O)C3)c2)ccn1 [Example 274, 7,8-Dichloro-4-[3-(2-isopropyl-pyridin-4-yl)-phenyl]-1,3-dihydro-benzo[b][1,4]diazepin-2-one]"
12,252 °C,"Cc1cc(-c2cccc(C3=Nc4cc(F)c(F)cc4NC(=O)C3)c2)cc(C)n1 [Example 126, 7,8-Difluoro-4-[3-(2,6-dimethyl-pyridin-4-yl)-phenyl]-1,3-dihydro-benzo[b][1,4]diazepin-2-one]"
13,197 to 198 °C,"CCc1cc2c(cc1C(F)(F)F)NC(=O)CC(c1cccc(-c3cccnc3)c1)=N2 [Example 211, 7-Ethyl-4-(3-pyridin-3-yl-phenyl)-8-trifluoromethyl-1,3-dihydro-benzo[b][1,4]diazepin-2-one]"
14,230 to 232 °C,"Cc1nccc(-c2cccc(C3=Nc4cc(C)c(C(F)(F)F)cc4NC(=O)C3)c2)n1 [Example 301, 7-Methyl-4-[3-(2-methyl-pyrimidin-4-yl)-phenyl]-8-trifluoromethyl-1,3-dihydro-benzo[b][1,4]diazepin-2-one]"
15,200 °C,"CCc1cc(C)c(-c2cccc(C3=Nc4cc(C)c(C(F)(F)F)cc4NC(=O)C3)c2)cn1 [Example 254, 4-[3-(6-Ethyl-4-methyl-pyridin-3-yl)-phenyl]-7-methyl-8-trifluoromethyl-1,3-dihydro-benzo[b][1,4]diazepin-2-one]"
16,220 to 233 °C,"O=C1CC(c2cccc(-c3ccncn3)c2)=Nc2ccc(Cl)cc2N1 [Example 299, 8-Chloro-4-(3-pyrimidin-4-yl-phenyl)-1,3-dihydro-benzo[b][1,4]diazepin-2-one]"
17,189 °C,"Cc1cc(-c2cccc(C3=Nc4cc(N(C)CC(C)C)c(C(F)(F)F)cc4NC(=O)C3)c2)ccn1 [Example 362, 7-(Isobutyl-methyl-amino)-4-[3-(2-methyl-pyridin-4-yl)-phenyl]-8-trifluoromethyl-1,3-dihydro-benzo[b][1,4]diazepin-2-one]"

row,melting point,Structure (SMILES)
1,215 to 220 °C,"Cc1ccc(-c2cccc(C3=Nc4cc(F)c(Cl)cc4NC(=O)C3)c2)cn1 [Example 23, 8-Chloro-7-fluoro-4-[3-(6-methyl-pyridin-3-yl)-phenyl]-1,3-dihydro-benzo[b][1,4]diazepin-2-one]"
2,190 to 193 °C,"Cc1cc(-c2cccc(C3=Nc4ccc(OC(F)(F)F)cc4NC(=O)C3)c2)cc(C)n1 [Example 213, 4-[3-(2,6-Dimethyl-pyridin-4-yl)-phenyl]-8-trifluoromethoxy-1,3-dihydro-benzo[b][1,4]diazepin-2-one]"
3,187 to 188 °C,"CCOc1cc2c(cc1C(F)(F)F)NC(=O)CC(c1cccc(-c3cccnc3C3CC3)c1)=N2 [Example 227, 4-[3-(2-Cyclopropyl-pyridin-3-yl)-phenyl]-7-ethoxy-8-trifluoromethyl-1,3-dihydro-benzo[b][1,4]diazepin-2-one]"
4,247 °C,"Cc1cc2c(cc1C(F)(F)F)NC(=O)CC(c1cccc(-c3ccnc(C(F)(F)F)c3)c1)=N2 [Example 265, 7-Methyl-8-trifluoromethyl-4-[3-(2-trifluoromethyl-pyridin-4-yl)-phenyl]-1,3-dihydro-benzo[b][1,4]diazepin-2-one]"
5,251 to 252 °C,"Cc1cc(-c2cccc(C3=Nc4cc(F)c(C(F)(F)F)cc4NC(=O)C3)c2)cc(C)n1 [Example 240, 4-[3-(2,6-Dimethyl-pyridin-4-yl)-phenyl]-7-fluoro-8-trifluoromethyl-1,3-dihydro-benzo[b][1,4]diazepin-2-one]"
6,159 °C,"Cc1ccc(-c2cccc(C3=Nc4cc(OCC(F)(F)F)c(C(F)(F)F)cc4NC(=O)C3)c2)cn1 [Example 239, 4-[3-(6-Methyl-pyridin-3-yl)-phenyl]-7-(2,2,2-trifluoro-ethoxy)-8-trifluoromethyl-1,3-dihydro-benzo[b][1,4]diazepin-2-one]"
7,233 °C,"Cc1cc(-c2cccc(C3=Nc4cc(N5CCCC5)c(C(F)(F)F)cc4NC(=O)C3)c2)cc(C)n1 [Example 411, 4-[3-(2,6-Dimethyl-pyridin-4-yl)-phenyl]-7-pyrrolidin-1-yl-8-trifluoromethyl-1,3-dihydro-benzo[b][1,4]diazepin-2-one]"
8,204 °C,"CC(C)Cc1cc(-c2cccc(C3=Nc4cc(Cl)c(Cl)cc4NC(=O)C3)c2)ccn1 [Example 279, 7,8-Dichloro-4-[3-(2-isobutyl-pyridin-4-yl)-phenyl]-1,3-dihydro-benzo[b][1,4]diazepin-2-one]"
9,219 °C,"Cc1nccc(-c2cccc(C3=Nc4cc(Cl)c(Cl)cc4NC(=O)C3)c2)c1C [Example 144, 7,8-Dichloro-4-[3-(2,3-dimethyl-pyridin-4-yl)-phenyl]-1,3-dihydro-benzo[b][1,4]diazepin-2-one]"
10,213 to 214 °C,"CCOc1cc2c(cc1C(F)(F)F)NC(=O)CC(c1cccc(-c3cnccc3C)c1)=N2 [Example 231, 7-Ethoxy-4-[3-(4-methyl-pyridin-3-yl)-phenyl]-8-trifluoromethyl-1,3-dihydro-benzo[b][1,4]diazepin-2-one]"
11,222 °C (dec.),"Cc1cc2c(cc1Cl)NC(=O)CC(c1cccc(-c3ccccn3)c1)=N2 [Example 45, 8-Chloro-7-methyl-4-(3-pyridin-2-yl-phenyl)-1,3-dihydro-benzo[b][1,4]diazepin-2-one]"
12,184 °C,"CCc1ncccc1-c1cccc(C2=Nc3cc(OCC(F)(F)F)c(C(F)(F)F)cc3NC(=O)C2)c1 [Example 236, 4-[3-(2-Ethyl-pyridin-3-yl)-phenyl]-7-(2,2,2-trifluoro-ethoxy)-8-trifluoromethyl-1,3-dihydro-benzo[b][1,4]diazepin-2-one]"
13,198 to 199 °C,"Cc1cc2c(cc1Cl)NC(=O)CC(c1cccc(-c3ccc(C4CC4)nc3)c1)=N2 [Example 161, 8-Chloro-4-[3-(6-cyclopropyl-pyridin-3-yl)-phenyl]-7-methyl-1,3-dihydro-benzo[b][1,4]diazepin-2-one]"
14,124 °C,"CC(C)N(C)c1cc2c(cc1C(F)(F)F)NC(=O)CC(c1cccc(-c3ccnc(CO)c3)c1)=N2 [Example 370, 4-[3-(2-Hydroxymethyl-pyridin-4-yl)-phenyl]-7-(isopropyl-methyl-amino)-8-trifluoromethyl-1,3-dihydro-benzo[b][1,4]diazepin-2-one]"
15,224 °C,"Cc1cc2c(cc1Cl)NC(=O)CC(c1cccc(-c3ccnc(C)c3C)c1)=N2 [Example 140, 8-Chloro-4-[3-(2,3-dimethyl-pyridin-4-yl)-phenyl]-7-methyl-1,3-dihydro-benzo[b][1,4]diazepin-2-one]"
16,208 °C,"CCc1cc(-c2cccc(C3=Nc4ccc(C(F)(F)F)cc4NC(=O)C3)c2)ccn1 [Example 155, 4-[3-(2-Ethyl-pyridin-4-yl)-phenyl]-8-trifluoromethyl-1,3-dihydro benzo[b][1,4]diazepin-2-one]"
17,208 to 209 °C,"C=Cc1cc2c(cc1C(F)(F)F)NC(=O)CC(c1cccc(-c3cccnc3)c1)=N2 [Example 214, 4-(3-Pyridin-3-yl-phenyl)-8-trifluoromethyl-7-vinyl-1,3-dihydro-benzo[b][1,4]diazepin-2-one]"
